Experimental data taken from patent US20250282794A1 (CURADEV PHARMA LTD, priority 2022, published 2025).

Target: recombinant full length HPK-1 enzyme (Homo sapiens (Human), UniProt Q92918)
Test: HPK-1 biochemical enzyme assay (ADP-Glo kinase inhibition)
Settings: recombinant full length HPK-1 6.8 nM, 10 μM ATP, 12.5 μM MBP, 30 mins at 25° C.
Method in brief: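 ADP-Glo readout of ADP formed after a 30 min, 25° C. reaction of 6.8 nM full-length HPK-1 with swine myelin basic protein (12.5 μM) and ATP (10 μM) in Tris pH 7.4 buffer with MgCl2, DTT and BSA. Ten compound concentrations tested; percent inhibition set against vehicle (0%) and no-enzyme (100%) controls gave IC50.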

recombinant full length HPK-1 enzyme, sequence (Q92918 whole entry, species assumed): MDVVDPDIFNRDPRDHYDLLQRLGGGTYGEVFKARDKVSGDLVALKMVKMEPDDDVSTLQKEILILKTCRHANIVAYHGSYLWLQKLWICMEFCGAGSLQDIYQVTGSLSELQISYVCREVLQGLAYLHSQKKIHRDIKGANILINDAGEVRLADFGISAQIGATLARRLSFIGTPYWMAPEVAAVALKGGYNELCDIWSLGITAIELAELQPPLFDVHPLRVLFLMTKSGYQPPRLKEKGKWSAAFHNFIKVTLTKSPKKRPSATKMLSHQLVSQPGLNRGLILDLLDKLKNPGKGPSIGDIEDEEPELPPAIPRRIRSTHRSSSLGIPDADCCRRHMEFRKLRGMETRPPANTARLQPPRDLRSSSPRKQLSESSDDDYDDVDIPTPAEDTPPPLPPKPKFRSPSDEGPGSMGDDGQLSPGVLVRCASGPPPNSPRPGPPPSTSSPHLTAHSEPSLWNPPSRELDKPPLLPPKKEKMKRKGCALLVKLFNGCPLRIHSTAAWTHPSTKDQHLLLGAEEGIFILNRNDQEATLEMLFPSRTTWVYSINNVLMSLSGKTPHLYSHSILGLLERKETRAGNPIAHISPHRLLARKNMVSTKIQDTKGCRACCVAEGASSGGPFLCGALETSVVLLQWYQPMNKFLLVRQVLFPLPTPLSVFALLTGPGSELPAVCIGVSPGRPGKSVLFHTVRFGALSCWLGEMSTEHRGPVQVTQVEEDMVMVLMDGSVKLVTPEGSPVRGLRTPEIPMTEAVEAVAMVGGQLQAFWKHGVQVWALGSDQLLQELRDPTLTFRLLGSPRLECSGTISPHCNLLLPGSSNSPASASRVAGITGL

IC50 [µM] | Compound
≤ 0.01 | Cc1c(Nc2cc[nH]c(=O)c2C(=O)Nc2ccc(N3CCN4C(=O)N(C)CC4C3)cc2)cnc2c1NCCO2 (centres unmarked) [Example 377, 4-((8-methyl-2,3-dihydro-1H-pyrido[2,3-b][1,4]oxazin-7-yl)amino)-N-(4-(2-methyl-3-oxohexahydroimidazo[1,5-a]pyrazin-7(1H)-yl)phenyl)-2-oxo-1,2-dihydropyridine-3-carboxamide]
≤ 0.01 | Cc1c(Nc2cc[nH]c(=O)c2C(=O)Nc2ccc(N3CCN(C(C)c4ccn[nH]4)CC3)cc2)cnc2c1NCCO2 (centres unmarked) [Example 378, N-(4-(4-(1-(1H-pyrazol-5-yl)ethyl)piperazin-1-yl)phenyl)-4-((8-methyl-2,3-dihydro-1H-pyrido[2,3-b][1,4]oxazin-7-yl)amino)-2-oxo-1,2-dihydropyridine-3-carboxamide]
≤ 0.01 | Cc1c(Nc2cc[nH]c(=O)c2C(=O)Nc2ccc(N3CCN(C4COC4)CC3)c(F)c2)cnc2c1NCCO2 [Example 379, N-(3-fluoro-4-(4-(oxetan-3-yl)piperazin-1-yl)phenyl)-4-((8-methyl-2,3-dihydro-1H-pyrido[2,3-b][1,4]oxazin-7-yl)amino)-2-oxo-1,2-dihydropyridine-3-carboxamide]
0.01 to 0.1 | Cc1c(Nc2cc[nH]c(=O)c2C(=O)Nc2ccc(N3CCN(C4(C)COC4)CC3)cc2)cnc2c1NCCO2 [Example 380, 4-((8-methyl-2,3-dihydro-1H-pyrido[2,3-b][1,4]oxazin-7-yl)amino)-N-(4-(4-(3-methyloxetan-3-yl)piperazin-1-yl)phenyl)-2-oxo-1,2-dihydropyridine-3-carboxamide]
0.01 to 0.1 | Cc1c(Nc2cc[nH]c(=O)c2C(=O)Nc2ccc(N3CCC(N(C)C(=O)C(C)C)C3)cc2)cnc2c1NCCO2 (centres unmarked) [Example 381, 4-((8-methyl-2,3-dihydro-1H-pyrido[2,3-b][1,4]oxazin-7-yl)amino)-N-(4-(3-(N-methylisobutyramido)pyrrolidin-1-yl)phenyl)-2-oxo-1,2-dihydropyridine-3-carboxamide]
0.01 to 0.1 | Cc1c(Nc2cc[nH]c(=O)c2C(=O)Nc2ccc(N3CCC4(CC3)CC4)cc2)cnc2c1NCCO2 [Example 382, N-(4-(6-azaspiro[2.5]octan-6-yl)phenyl)-4-((8-methyl-2,3-dihydro-1H-pyrido[2,3-b][1,4]oxazin-7-yl)amino)-2-oxo-1,2-dihydropyridine-3-carboxamide]
≤ 0.01 | Cc1c(Nc2cc[nH]c(=O)c2C(=O)Nc2ccc(N3CCN(C(C)(C)C)CC3)cc2)cnc2c1NCCO2 [Example 383, N-(4-(4-(tert-butyl)piperazin-1-yl)phenyl)-4-((8-methyl-2,3-dihydro-1H-pyrido[2,3-b][1,4]oxazin-7-yl)amino)-2-oxo-1,2-dihydropyridine-3-carboxamide]
0.01 to 0.1 | Cc1c(Nc2cc[nH]c(=O)c2C(=O)Nc2ccc(C3CCN(C(C)C)CC3)cc2)cnc2c1NCC(C)O2 (centres unmarked) [Example 384, 4-((3,8-dimethyl-2,3-dihydro-1H-pyrido[2,3-b][1,4]oxazin-7-yl)amino)-N-(4-(1-isopropylpiperidin-4-yl)phenyl)-2-oxo-1,2-dihydropyridine-3-carboxamide]
0.01 to 0.1 | CCN1CCN(c2ccc(NC(=O)c3c(Nc4cnc5c(c4C)NCC(C)O5)cc[nH]c3=O)cc2F)CC1 (centres unmarked) [Example 385, 4-((3,8-dimethyl-2,3-dihydro-1H-pyrido[2,3-b][1,4]oxazin-7-yl)amino)-N-(4-(4-ethylpiperazin-1-yl)-3-fluorophenyl)-2-oxo-1,2-dihydropyridine-3-carboxamide]
≤ 0.01 | CCN1CCN(c2ccc(NC(=O)c3c(Nc4cnc5c(c4C)NCC(C)O5)cc[nH]c3=O)cc2F)CC1 (centres unmarked) [Example 386, 4-((3,8-dimethyl-2,3-dihydro-1H-pyrido[2,3-b][1,4]oxazin-7-yl)amino)-N-(4-(4-ethylpiperazin-1-yl)-3-fluorophenyl)-2-oxo-1,2-dihydropyridine-3-carboxamide]
0.01 to 0.1 | Cc1c(Nc2cc[nH]c(=O)c2C(=O)Nc2ccc(N3CCN(CCF)CC3)c(F)c2)cnc2c1NCCO2 [Example 387, N-(3-fluoro-4-(4-(2-fluoroethyl)piperazin-1-yl)phenyl)-4-((8-methyl-2,3-dihydro-1H-pyrido[2,3-b][1,4]oxazin-7-yl)amino)-2-oxo-1,2-dihydropyridine-3-carboxamide]
≤ 0.01 | CCN1CCN(c2c(F)cc(NC(=O)c3c(Nc4cnc5c(c4C)NCCO5)cc[nH]c3=O)cc2Cl)CC1 [Example 389, N-(3-Chloro-4-(4-ethylpiperazin-1-yl)-5-fluorophenyl)-4-((8-methyl-2,3-dihydro-1H-pyrido[2,3-b][1,4]oxazin-7-yl)amino)-2-oxo-1,2-dihydropyridine-3-carboxamide]
0.01 to 0.1 | CCN1CCN(c2c(F)cc(NC(=O)c3c(Nc4cnc5c(c4C)NCCO5)cc[nH]c3=O)cc2F)CC1 [Example 390, N-(4-(4-ethylpiperazin-1-yl)-3,5-difluorophenyl)-4-((8-methyl-2,3-dihydro-1H-pyrido[2,3-b][1,4]oxazin-7-yl)amino)-2-oxo-1,2-dihydropyridine-3-carboxamide]
≤ 0.01 | Cc1c(Nc2cc[nH]c(=O)c2C(=O)Nc2ccc(N3CCN(C4CC4)CC3)c(Cl)c2)cnc2c1NCCO2 [Example 391, N-(3-chloro-4-(4-cyclopropylpiperazin-1-yl)phenyl)-4-((8-methyl-2,3-dihydro-1H-pyrido[2,3-b][1,4]oxazin-7-yl)amino)-2-oxo-1,2-dihydropyridine-3-carboxamide]
≤ 0.01 | COC1(CN(C)C)CCN(c2ccc(NC(=O)c3c(Nc4cnc5c(c4C)NCCO5)cc[nH]c3=O)cc2)CC1 [Example 392, N-(4-(4-((dimethylamino)methyl)-4-methoxypiperidin-1-yl)phenyl)-4-((8-methyl-2,3-dihydro-1H-pyrido[2,3-b][1,4]oxazin-7-yl)amino)-2-oxo-1,2-dihydropyridine-3-carboxamide]
0.01 to 0.1 | Cc1c(Nc2cc[nH]c(=O)c2C(=O)Nc2ccc(N3CCN(C)CC3)c(CCO)c2)cnc2c1NCCO2 [Example 394, N-(3-(2-hydroxyethyl)-4-(4-methylpiperazin-1-yl)phenyl)-4-((8-methyl-2,3-dihydro-1H-pyrido[2,3-b][1,4]oxazin-7-yl)amino)-2-oxo-1,2-dihydropyridine-3-carboxamide]
0.01 to 0.1 | Cc1c(Nc2cc[nH]c(=O)c2C(=O)Nc2ccc(N3CCC(N)C3)cc2)cnc2c1NCCO2 (centres unmarked) [Example 395, N-(4-(3-aminopyrrolidin-1-yl)phenyl)-4-((8-methyl-2,3-dihydro-1H-pyrido[2,3-b][1,4]oxazin-7-yl)amino)-2-oxo-1,2-dihydropyridine-3-carboxamide]
0.1 to 1 | COc1ncc(C(C)(C)O)c2cc(NC(=O)c3c(Nc4cnc5c(c4C)NCCO5)cc[nH]c3=O)ccc12 [Example 396, N-(4-(2-Hydroxypropan-2-yl)-1-methoxyisoquinolin-6-yl)-4-((8-methyl-2,3-dihydro-1H-pyrido[2,3-b][1,4]oxazin-7-yl)amino)-2-oxo-1,2-dihydropyridine-3-carboxamide]
0.01 to 0.1 | Cc1c(Nc2cc[nH]c(=O)c2C(=O)Nc2ccc(N3CCCC3CO)cc2)cnc2c1NCCO2 (centres unmarked) [Example 397, N-(4-(2-(hydroxymethyl)pyrrolidin-1-yl)phenyl)-4-((8-methyl-2,3-dihydro-1H-pyrido[2,3-b][1,4]oxazin-7-yl)amino)-2-oxo-1,2-dihydropyridine-3-carboxamide]
0.01 to 0.1 | Cc1c(Nc2cc[nH]c(=O)c2C(=O)Nc2ccc(N3CCC(O)C3)cc2)cnc2c1NCCO2 (centres unmarked) [Example 398, N-(4-(3-hydroxypyrrolidin-1-yl)phenyl)-4-((8-methyl-2,3-dihydro-1H-pyrido[2,3-b][1,4]oxazin-7-yl)amino)-2-oxo-1,2-dihydropyridine-3-carboxamide]
≤ 0.01 | CCCN1CCN(c2ccc(NC(=O)c3c(Nc4cnc5c(c4C)NCCO5)cc[nH]c3=O)cc2)CC1 [Example 399, 4-((8-methyl-2,3-dihydro-1H-pyrido[2,3-b][1,4]oxazin-7-yl)amino)-2-oxo-N-(4-(4-propylpiperazin-1-yl)phenyl)-1,2-dihydropyridine-3-carboxamide]
0.01 to 0.1 | Cc1cc(NC(=O)c2c(Nc3cnc4c(c3C)NCCO4)cc[nH]c2=O)ccc1N1CCN(C2CC2)CC1 [Example 400, N-(4-(4-cyclopropylpiperazin-1-yl)-3-methylphenyl)-4-((8-methyl-2,3-dihydro-1H-pyrido[2,3-b][1,4]oxazin-7-yl)amino)-2-oxo-1,2-dihydropyridine-3-carboxamide]
0.01 to 0.1 | CCOc1cc(NC(=O)c2c(Nc3cnc4c(c3C)NCCO4)cc[nH]c2=O)ccc1N1CCN(C2CC2)CC1 [Example 401, N-(4-(4-cyclopropylpiperazin-1-yl)-3-ethoxyphenyl)-4-((8-methyl-2,3-dihydro-1H-pyrido[2,3-b][1,4]oxazin-7-yl)amino)-2-oxo-1,2-dihydropyridine-3-carboxamide]
0.01 to 0.1 | CC(=O)N1CCN(c2ccc(NC(=O)c3c(Nc4cnc5c(c4C)NCCO5)cc[nH]c3=O)cc2)CC1 [Example 402, N-(4-(4-acetylpiperazin-1-yl)phenyl)-4-((8-methyl-2,3-dihydro-1H-pyrido[2,3-b][1,4]oxazin-7-yl)amino)-2-oxo-1,2-dihydropyridine-3-carboxamide]
≤ 0.01 | Cc1c(Nc2cc[nH]c(=O)c2C(=O)Nc2ccc(N3CCN(C(=O)CCO)CC3)cc2)cnc2c1NCCO2 [Example 403, N-(4-(4-(3-hydroxypropanoyl)piperazin-1-yl)phenyl)-4-((8-methyl-2,3-dihydro-1H-pyrido[2,3-b][1,4]oxazin-7-yl)amino)-2-oxo-1,2-dihydropyridine-3-carboxamide]
≤ 0.01 | Cc1c(Nc2cc[nH]c(=O)c2C(=O)Nc2ccc(N3CCN(C(C)C)CC3)cc2)cnc2c1NCC(C)O2 (centres unmarked) [Example 404, 4-((3,8-dimethyl-2,3-dihydro-1H-pyrido[2,3-b][1,4]oxazin-7-yl)amino)-N-(4-(4-isopropylpiperazin-1-yl)phenyl)-2-oxo-1,2-dihydropyridine-3-carboxamide]
